Structures can show the parent of a compound that is named as a salt.
Target: T1, CHK1 kinase (Homo sapiens, UniProt O14757)
T1 construct: The kinase domain is expressed in baculovirus and purified by the GST tag; GST; made in house
T1 sequence (O14757 9-265 limits assumed): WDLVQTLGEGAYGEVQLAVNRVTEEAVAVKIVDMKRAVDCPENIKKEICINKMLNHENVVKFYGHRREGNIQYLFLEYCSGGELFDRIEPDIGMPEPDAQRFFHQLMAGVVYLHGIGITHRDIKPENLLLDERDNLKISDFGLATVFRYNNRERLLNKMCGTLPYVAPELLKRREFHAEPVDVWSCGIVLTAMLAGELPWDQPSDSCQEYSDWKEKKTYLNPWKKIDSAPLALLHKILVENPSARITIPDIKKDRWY
Assay: Checkpoint Kinase 1 Assay (Scintillation Proximity Assay)
Format: biochemical
Conditions: assay not given; IC50s are determined in the Checkpoint Kinase 1 assay
Protocol: Checkpoint Kinase 1 Assay: This in vitro assay measures the inhibition of CHK1 kinase by compounds. The kinase domain is expressed in baculovirus and purified by the GST tag. Purified protein and biotinylated peptide substrate (Cdc25C) is then used in a 384 well automated Scintillation Proximity Assay (SPA). Specifically, peptide, enzyme and reaction buffer are mixed and aliquoted into a 384 well plate containing dilution series of compounds and controls. Cold and hot ATP are then added to initiate the reaction. After 2 hours, a SPA bead slurry, […] and EDTA are added to stop the reaction and capture the biotinylated peptide. Plates are then counted on a Topcount. Data is analyzed and IC50s determined for individual compounds.

CCN(CC)CCOc1ccc(-c2cc(C(=O)NC3CCCNC3)c(NC(N)=O)s2)cc1 (stereo not shown) [Example 2, 2-[(aminocarbonyl)amino]-5-{4-[2-(diethylamino)ethoxy]phenyl}-N-piperidin-3-ylthiophene-3-carboxamide trifluoroacetate] showed an IC50 of 10 nM.

Reference: patent publication US7423061B2, “Substitute thiophenes and uses thereof” (AstraZeneca AB, priority 2003, dated 2008)
